Data: ChEMBL document CHEMBL1201862, “PubChem BioAssay data set” (2004)
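Assay format: 96-well plates, 48-hour exposure. At the GI50, growth is halved.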 The source made the active and inactive calls. No stated cut-off is given here; in the data, active = GI50 up to about 1.1 µM and inactive = higher.

Columns and labels:
Assay in all cases: growth of human tumour cells (NCI), 48 h
[1] = test system: ACHN
[2] = test system: A549
[3] = test system: KM12
[4] = test system: A498
[5] = test system: CCRF-CEM
[6] = test system: SNB-75
[7] = test system: U-251
[8] = test system: HT-29
[9] = test system: SK-OV-3
[10] = test system: SNB-19
[11] = test system: UO-31
[12] = test system: HOP-62
[13] = test system: NCI-H460
[14] = test system: SN12C
[15] = test system: M14
[16] = test system: SW-620
[17] = test system: HCC 2998
[18] = test system: OVCAR-8
[19] = test system: MCF7
[20] = test system: LOX IMVI

For `O=C(O)c1cc(-c2ccc3c(O)ccc(O)c3c2)ccc1O`, the GI50 [1] was 19.3 µM (inactive), the GI50 [2] was 33.5 µM (inactive) and the GI50 [3] was 20.3 µM (inactive). For the same compound, the GI50 [4] was 17.4 µM (inactive), the GI50 [5] was 1.87 µM (inactive) and the GI50 [6] was 17 µM (inactive). For the same compound, the GI50 [7] was 21.4 µM (inactive), the GI50 [8] was 18.8 µM (inactive) and the GI50 [9] was > 10 µM (inactive). For the same compound, the GI50 [10] was 40.9 µM (inactive), the GI50 [11] was 17.4 µM (inactive) and the GI50 [12] was 34.1 µM (inactive). For the same compound, the GI50 [13] was 20.5 µM (inactive), the GI50 [14] was 15.7 µM (inactive) and the GI50 [15] was 21.9 µM (inactive). For the same compound, the GI50 [16] was 5.82 µM (inactive), the GI50 [17] was 16.4 µM (inactive) and the GI50 [18] was 23.7 µM (inactive). The GI50 [19] was 22.6 µM (inactive) and the GI50 [20] was 11.5 µM (inactive).

In the case of `O=C(N/C(=C\NC1=NCCS1)C(=O)N1CSC[C@@H]1C(=O)O)c1ccccc1`, the GI50 [1] is reported as > 100 µM (inactive), the GI50 [2] is reported as > 100 µM (inactive) and the GI50 [3] is reported as > 100 µM (inactive). The GI50 [4] was > 100 µM (inactive), the GI50 [5] was > 100 µM (inactive) and the GI50 [6] was > 100 µM (inactive). The GI50 [7] was > 100 µM (inactive), the GI50 [8] was > 100 µM (inactive) and the GI50 [9] was > 100 µM (inactive). For the same compound, the GI50 [10] was > 100 µM (inactive), the GI50 [11] was > 100 µM (inactive) and the GI50 [12] was > 100 µM (inactive). The GI50 [13] was > 100 µM (inactive), the GI50 [14] was > 100 µM (inactive) and the GI50 [15] was > 100 µM (inactive). For the same compound, the GI50 [16] was > 100 µM (inactive), the GI50 [17] was > 100 µM (inactive) and the GI50 [18] was > 100 µM (inactive). The GI50 [19] was > 100 µM (inactive) and the GI50 [20] was > 100 µM (inactive).

In the case of `COC(=O)[C@H]1[C@@H](C(C)C)O[C@@H](C(C)C)O[C@H]1C(F)(F)F`, the GI50 [1] is reported as > 100 µM (inactive), the GI50 [2] is reported as > 100 µM (inactive) and the GI50 [3] is reported as > 100 µM (inactive). The GI50 [4] was > 100 µM (inactive), the GI50 [5] was > 100 µM (inactive) and the GI50 [6] was > 100 µM (inactive). For the same compound, the GI50 [7] was > 100 µM (inactive), the GI50 [8] was > 100 µM (inactive) and the GI50 [9] was > 100 µM (inactive). The GI50 [10] was > 100 µM (inactive), the GI50 [11] was > 100 µM (inactive) and the GI50 [12] was > 100 µM (inactive). The GI50 [13] was > 100 µM (inactive), the GI50 [14] was > 100 µM (inactive) and the GI50 [15] was > 100 µM (inactive). For the same compound, the GI50 [16] was > 100 µM (inactive), the GI50 [17] was > 100 µM (inactive) and the GI50 [18] was > 100 µM (inactive). The GI50 [19] was > 100 µM (inactive) and the GI50 [20] was > 100 µM (inactive).

For `O=P1(Oc2ccccc2)N(CCCl)CCN1c1ccccc1` (stereo not given), the GI50 [1] was > 100 µM (inactive), the GI50 [2] was > 100 µM (inactive) and the GI50 [3] was > 100 µM (inactive). The GI50 [4] was 55 µM (inactive), the GI50 [5] was > 100 µM (inactive) and the GI50 [6] was 34.8 µM (inactive). For the same compound, the GI50 [7] was > 100 µM (inactive), the GI50 [8] was > 100 µM (inactive) and the GI50 [9] was > 100 µM (inactive). The GI50 [10] was > 100 µM (inactive), the GI50 [11] was > 100 µM (inactive) and the GI50 [12] was > 100 µM (inactive). The GI50 [13] was > 100 µM (inactive), the GI50 [14] was > 100 µM (inactive) and the GI50 [15] was > 100 µM (inactive). For the same compound, the GI50 [16] was > 100 µM (inactive), the GI50 [17] was > 100 µM (inactive) and the GI50 [18] was > 100 µM (inactive). For the same compound, the GI50 [19] was 70.1 µM (inactive) and the GI50 [20] was > 100 µM (inactive).

`[O-][n+]1onc(-c2ccccc2)c1CN1CCOCC1` was tested, and the GI50 [1] was > 100 µM (inactive), the GI50 [2] was > 100 µM (inactive) and the GI50 [3] was > 100 µM (inactive). For the same compound, the GI50 [4] was 61.9 µM (inactive), the GI50 [5] was 22.8 µM (inactive) and the GI50 [6] was > 100 µM (inactive). The GI50 [7] was > 100 µM (inactive), the GI50 [8] was > 100 µM (inactive) and the GI50 [9] was > 100 µM (inactive). The GI50 [10] was > 100 µM (inactive), the GI50 [11] was 77.1 µM (inactive) and the GI50 [12] was > 100 µM (inactive). For the same compound, the GI50 [13] was > 100 µM (inactive), the GI50 [14] was > 100 µM (inactive) and the GI50 [15] was > 100 µM (inactive). For the same compound, the GI50 [16] was > 100 µM (inactive), the GI50 [17] was > 100 µM (inactive) and the GI50 [18] was > 100 µM (inactive). For the same compound, the GI50 [19] was > 100 µM (inactive) and the GI50 [20] was 71.8 µM (inactive).

With `COc1ccccc1/C=C1\CCC(Cc2ccccc2)(CN(C)C)C1=O` (stereo not given) the GI50 [1] was 12.6 µM (inactive), the GI50 [2] was 3.44 µM (inactive) and the GI50 [3] was 0.319 µM (active). The GI50 [4] was 6.93 µM (inactive), the GI50 [5] was 0.528 µM (active) and the GI50 [6] was 3.32 µM (inactive). The GI50 [7] was 0.524 µM (active), the GI50 [8] was 0.426 µM (active) and the GI50 [9] was 8.36 µM (inactive). The GI50 [10] was 1.57 µM (inactive), the GI50 [11] was 7.59 µM (inactive) and the GI50 [12] was 11.6 µM (inactive). The GI50 [13] was 0.698 µM (active), the GI50 [14] was 3.75 µM (inactive) and the GI50 [15] was 3.13 µM (inactive). For the same compound, the GI50 [16] was 0.259 µM (active), the GI50 [17] was 3.13 µM (inactive) and the GI50 [18] was 2.33 µM (inactive). For the same compound, the GI50 [19] was 0.292 µM (active) and the GI50 [20] was 1.19 µM (inactive).

In the case of `CCNc1nnc(-c2ccccc2Nc2ccccc2-c2nnc(NCC)s2)s1`, the GI50 [1] is reported as 7.35 µM (inactive), the GI50 [2] is reported as 13.5 µM (inactive) and the GI50 [3] is reported as 9.46 µM (inactive). The GI50 [4] was 13.5 µM (inactive), the GI50 [5] was 4.18 µM (inactive) and the GI50 [6] was 18.2 µM (inactive). The GI50 [7] was 11.4 µM (inactive), the GI50 [8] was 10.9 µM (inactive) and the GI50 [9] was 9.06 µM (inactive). The GI50 [10] was 27.4 µM (inactive), the GI50 [11] was 4.71 µM (inactive) and the GI50 [12] was 22.2 µM (inactive). The GI50 [13] was 5.66 µM (inactive), the GI50 [14] was 18.9 µM (inactive) and the GI50 [15] was 14.5 µM (inactive). For the same compound, the GI50 [16] was 19.4 µM (inactive), the GI50 [17] was 11.6 µM (inactive) and the GI50 [18] was 13.6 µM (inactive). For the same compound, the GI50 [19] was 2.28 µM (inactive) and the GI50 [20] was 8.05 µM (inactive).

In the case of `CC(C)NC(=O)OCc1c(COC(=O)NC(C)C)c(-c2ccc(Cl)c(Cl)c2)n2c1CCC2`, the GI50 [1] is reported as 18.7 µM (inactive), the GI50 [2] is reported as 21.1 µM (inactive) and the GI50 [3] is reported as 62.5 µM (inactive). The GI50 [4] was 34 µM (inactive), the GI50 [5] was 26.5 µM (inactive) and the GI50 [6] was 39.4 µM (inactive). The GI50 [7] was 51.3 µM (inactive), the GI50 [8] was 40.9 µM (inactive) and the GI50 [9] was 61.4 µM (inactive). For the same compound, the GI50 [10] was 56.5 µM (inactive), the GI50 [11] was 45 µM (inactive) and the GI50 [12] was 38.5 µM (inactive). The GI50 [13] was 36.6 µM (inactive), the GI50 [14] was 49.4 µM (inactive) and the GI50 [15] was 35.9 µM (inactive). The GI50 [16] was 21 µM (inactive), the GI50 [17] was 43.6 µM (inactive) and the GI50 [18] was 46.6 µM (inactive). For the same compound, the GI50 [19] was > 100 µM (inactive) and the GI50 [20] was 46.8 µM (inactive).

In the case of `Cc1cnc2nc(-c3cccc4ccccc34)cc(O)c2c1`, the GI50 [1] is reported as 0.00119 µM (active), the GI50 [2] is reported as 0.0014 µM (active) and the GI50 [3] is reported as 0.000551 µM (active). For the same compound, the GI50 [4] was 0.000352 µM (active), the GI50 [5] was 0.000692 µM (active) and the GI50 [6] was 0.000407 µM (active). For the same compound, the GI50 [7] was 0.000532 µM (active), the GI50 [8] was 0.000412 µM (active) and the GI50 [9] was 0.000706 µM (active). For the same compound, the GI50 [10] was 0.00332 µM (active), the GI50 [11] was 0.00242 µM (active) and the GI50 [12] was 0.0248 µM (active). For the same compound, the GI50 [13] was 0.00303 µM (active), the GI50 [14] was 0.00869 µM (active) and the GI50 [15] was 0.000711 µM (active). The GI50 [16] was 0.000449 µM (active), the GI50 [17] was 0.000723 µM (active) and the GI50 [18] was 0.00251 µM (active). For the same compound, the GI50 [19] was 0.00121 µM (active) and the GI50 [20] was 0.000819 µM (active).

In the case of `Cc1occc1C(=S)Nc1ccc(Cl)c(/C=N/OC(C)(C)C)c1`, the GI50 [1] is reported as 14.6 µM (inactive), the GI50 [2] is reported as 16.6 µM (inactive) and the GI50 [3] is reported as 15.3 µM (inactive). For the same compound, the GI50 [4] was 20.4 µM (inactive), the GI50 [5] was 17.8 µM (inactive) and the GI50 [6] was 21.8 µM (inactive). For the same compound, the GI50 [7] was 13.9 µM (inactive), the GI50 [8] was 13.7 µM (inactive) and the GI50 [9] was 23 µM (inactive). The GI50 [10] was 18.7 µM (inactive), the GI50 [11] was 13.9 µM (inactive) and the GI50 [12] was 19.9 µM (inactive). For the same compound, the GI50 [13] was 14.7 µM (inactive), the GI50 [14] was 15.1 µM (inactive) and the GI50 [15] was 18.2 µM (inactive). The GI50 [16] was 18.5 µM (inactive), the GI50 [17] was 16.6 µM (inactive) and the GI50 [18] was 18.9 µM (inactive). The GI50 [19] was 18.1 µM (inactive) and the GI50 [20] was 13.1 µM (inactive).
